Measurements from US12559749B2, “Methods of rescuing stop codons via genetic reassignment with ACE-tRNA” (UNIVERSITY OF IOWA RESEARCH FOUNDATION, priority 2017, dated 2026).

Tests used:
[1] = test system: native stop codons (TAA, TAG, TGA), 3′UTR ribosome density; assay: Ribosome footprint profiling of transcriptome-wide 3′UTRs, HEK293 cells; type: cell-based, human
Source text: The question was raised whether ACE-tRNAs that show efficacious suppression of premature stop codons may also induce global readthrough of native stop codons. To address this potential “off target” suppression, a transcriptome-wide quantitative profile of actively engaged ribosomes on all cellular transcripts was obtained by generating libraries of ribosome footprints from HEK293 cells expressing exogenous ACE-tRNAs or a control mock plasmid (puc57GG). Streptomycin was removed from the growth media to prevent readthrough artifacts. For comparison, the ribosome footprint library was also generated from cells in the presence or absence of G418 (150 μM, 48 h). […] Only transcripts with a minimum threshold of 5 RPKM in the coding sequence and 0.5 RPKM in the 3′UTR in two replicate libraries were included for the quantitation comparison (254 transcripts in G418 and 495-748 transcripts in ACE-tRNAs). […] ACE-tRNAs examined here had no detectable change of 3′UTR ribosome density with the exception of ACE-tRNA Gln-UAA and Arg-UGA which induced approximately a 2-fold increase in 3′UTR ribosome density for the cognate stop codon complimentary to the ACE-tRNA anticodon. Understanding the biological significance of 2-fold readthrough of protein stops will require further study, but this effect is substantially lower compared to the 100- to 1000-fold suppression of PTC for the same ACE-tRNA.
Multiple in-frame stop codons are frequently found at the end of genes 37-39 and may cause a minor difference in overall 3′UTR ribosome density for ACE-tRNA and G418 treatment. Ribosome occupancy was examined at each nucleotide in the 3′UTR within a 60 nt region downstream of the stop codons. […] Reads were normalized per total million-mapped reads, compared against control cells, and reported as a log 2-fold change as in panel A. More than 5,200 transcripts were mapped to at least 1 footprint in the region of interest. […] Taken together, the ribosome profiling data argue that efficiency of native stop codon suppression by ACE-tRNAs is generally low, and markedly less than the level of PTC suppression.
Ribosome Footprint Profiling Library preparation. HEK293 cells transiently transfected with ACE-tRNAs and control plasmid (puc57GG) were grown in standard grown media in the absence of Pen-Strep for 48 h. Libraries were prepared as described^55, with a few modifications. Briefly, cells were rapidly cooled by addition of ice-cold PBS, lysed in lysis buffer (20 mM Tris-HCl/pH7.4, 150 mM NaCl, 5 mM MgCl2, 1 mM DTT, 1% (v/v) Triton X-100, and 25 U ml^−1 Turbo DNase I) for 10 min on ice, and triturated with ten times through a 26-G needle. […]

[2] = Phase 3 clinical trials; cited from earlier work
[3] = test system: NLuc-UGA PTC reporter; assay: NanoLuc nonsense reporter screen of ACE-tRNA, UGA (TGA) PTC, HEK293 cells; type: cell-based, human; conditions: t-stem variants, luciferase 24 hours post-transfection, HEK cells
Source text: Several different nonsense mutations cause CF, thus underlying roughly 10% of all CF disease. FIG. 7. These cases are concentrated into […] specific genetic lesions: E60X, R75X, G542X, R553X, Q890X, Y1092X, R1158X, R1162X and W1282X. We propose that it should be feasible, with the right approach, to screen existing human tRNA sequences for modification and tolerance to anti-codon editing. To this end, roughly 144 ACE-tRNAs were candidates to test for those that could be used to promote the repair of the disease causative nonsense codon and the expression of the full-length protein. Specifically, using the scheme described in FIG. 11, tRNA libraries were generated to identify novel tRNA sequences that encode for ACE tRNA with the ability to repair the top CF causative nonsense mutations. Specifically, 10 ng of annealed oligos encoding the ACE-tRNAs were combined with 50 ng of NanoLuc reporter plasmid, 1 ul 10× CutSmart Buffer (NEB), 1 ul T4 ligase (NEB), 10 mM ATP and 1 ul BbsI (NEB) and cycled in a thermocycler as described in FIG. 11. 1 ul of the reaction was transformed into competent E. coli and the transformants were plated on ampicillin agar plates. […]
Screening studies were first performed to identify the best ACE-tRNA Candidates from tryptophan and glycine. […] Plates were read on a SpectraMax i3 (Molecular Devices). […]

Molecule: CN[C@@H]1[C@@H](O)[C@@H](O[C@@H]2[C@@H](O)[C@H](O[C@H]3O[C@H]([C@@H](C)O)[C@@H](O)[C@H](O)[C@H]3N)[C@@H](N)C[C@H]2N)OC[C@]1(C)O [G418, reference compound]
- effect on transcriptome-wide 3′UTR ribosome density ([1]; G418 150 μM, 48 h, ACE-tRNAs transiently transfected): no observable effect on transcriptome-wide 3′UTR ribosome density
- ribosome occupancy in the early region of 3′UTR downstream of stop codons ([1]; per nucleotide, -35 to +65 nt): no observable change of ribosome occupancy

Molecule: O=C(O)c1cccc(-c2noc(-c3ccccc3F)n2)c1 [Ataluren]
- efficacy in patient populations [2]: unexpectedly low efficacy

B1: TS-38 52-62 G-C: t-stem variant of Trpchr17.trna39, SEQ ID NO: 3 (nucleic acid)
chain: GGCCUCGUGGCGCAACGGUAGCGCGUCUGACUUCAGAUCAGAAGGUUCCGGGUUCAAAUCCCGGCGGGGUCA
modifications: expressed or natural sequence
- increase of suppression activity relative to Trpchr17.trna39 [3]: roughly 250%

B2: TS-10 52-62 G-C: t-stem mutant of Trpchr17.tRNA 39, FIG. 12B, SEQ ID NO: 589 (nucleic acid)
chain: GACCUCGUGGCGCAACGGUUAGCGCGUCUGACUUCAGAUCAGAAGGCUCCGGGUUCGAAUCCCGGCGGGGUCA
modifications: expressed or natural sequence
- increase of suppression activity relative to Trpchr17.trna39 [3]: ~250%
